“And” between values parts separate entries of the source, which are not always exact repeats. Identical values can stand only once.
Key:
[1] = system: PB2452 binding to biotinylated ticagrelor; assay: Selectivity: competition binding with PB2452 to biotinylated ticagrelor; set-up: species or system human
Experimental: The chemical starting point for the development of ticagrelor was adenosine triphosphate (ATP), and ticagrelor retains an adenosine-like core. To confirm the specificity of PB2452 for ticagrelor and ticagrelor active metabolite (TAM), its binding to ATP, ADP, and adenosine was evaluated. […] The selectivity of PB2452 was determined by competition binding with PB2452 to biotinylated ticagrelor.

[2] = system: platelet aggregation (ticagrelor antiplatelet activity); assay type: in vivo, human; conditions: placebo subjects
Experimental: Platelet function was assessed using light transmission aggregometry (LTA), VerifyNow, and vasodilator stimulated phosphoprotein (VASP) assays before and after 48 hours of ticagrelor administration […] Cohorts 7 to 10 received an 18-gram fixed dose of PB2452 via various infusion regimens or placebo. Infusions of PB2452 in these cohorts were initiated 2 hours after the last ticagrelor pretreatment dose to coincide with the peak concentration of ticagrelor. (Gurbel (2009). Subjects in all cohorts were randomized in a 3:1 ratio to receive PB2452 or placebo. The primary efficacy outcome was the effectiveness of PB2452 in reversing the antiplatelet effect of ticagrelor by analyzing platelet aggregation using light transmission aggregometry at multiple time points before and after PB2452 or placebo administration in ticagrelor pretreated subjects. Secondary efficacy outcomes were the effectiveness of ticagrelor reversal assessed using VerifyNow and the vasodilator stimulated phosphoprotein phosphorylation immunoassay (VASP). The sample size of 64 was based on clinical and practical considerations and not on a formal statistical power calculation. The sample size was considered sufficient to adequately assess the safety, efficacy, and pharmacokinetic profiles of PB2452 and the pharmacokinetic and pharmacodynamic profiles of ticagrelor. Reversal of antiplatelet effect was evaluated by comparing the mean percent of baseline platelet aggregation between PB2452 and placebo using Wilcoxon rank-sum test. Multiplicity was adjusted using the Bonferroni method. Correlations between each pair of the platelet function tests were evaluated using Pearson's correlation and Spearman's rank correlation coefficient. Mean data from subjects receiving placebo were pooled across cohorts for all presentations. Categorical variables are summarized by their frequencies and percentages, and continuous variables are presented with the number of subjects with non-missing data, mean, standard deviation, median, minimum, and maximum. Descriptive statistics are presented for each cohort, and pooled placebo and PB2452 data. For pharmacodynamic data, platelet aggregation results were compared between each cohort and pooled placebo data (cohorts 4 to 6 and cohort 7 to 10 were pooled separately). All analyses were performed with SAS software, version 9.4 (SAS Institute).

[3] = Phase 1 healthy volunteer study: pharmacokinetics of total ticagrelor; assay type: in vivo, human
Experimental: Plasma samples for determining total concentration of ticagrelor and its active metabolite, TAM (or ARC-124910XX) will be collected from subjects in Cohorts 4 through 10 before dosing (within 10 minutes prior to the initiation of the study drug infusion [Hour 0], and up to 48 hours following the initiation of study drug infusion. Specific collection times for each cohort are listed in the table below: […]

[4] = PLATO, cited from earlier work; for patients with fatal or life-threatening major bleeding events: patients with ACS, both treatment groups

Compound	inhibition of PB2452 binding to biotinylated ticagrelor [1]	other results
Nc1ncnc2c1ncn2[C@@H]1O[C@H](COP(=O)(O)OP(=O)(O)OP(=O)(O)O)[C@@H](O)[C@H]1O [ATP, adenosine triphosphate]	No inhibition	–
CC1(C)C(C=C(Cl)Cl)C1C(=O)OC(C#N)c1ccc(F)c(Oc2ccccc2)c1 (centres unmarked) [cyfluthrin]	No inhibition	–
CCCSc1nc(N[C@@H]2C[C@H]2c2ccc(F)c(F)c2)c2nnn([C@@H]3C[C@H](OCCO)[C@@H](O)[C@H]3O)c2n1 [ticagrelor, (1S,2S,3R,5S)-3-[7-{[(1R,2S)-2-(3,4-difluorophenyl)cyclopropyl]amino}-5-(propylthio)-3H-[1,2,3]triazolo[4,5-d]pyrimidin-3-yl]-5-(2-hydroxyethoxy)cyclopentane-1,2-diol]	–	suppression of platelet aggregation ([2]; after 48 hours of ticagrelor (180 mg loading + 90 mg twice daily)): ~80% and 80-85%; platelet aggregation remained suppressed after ticagrelor was stopped [2]: 24 h; increase of mean ticagrelor concentrations compared with ticagrelor alone ([3]; PB2452 18 gram dose level with 8- to 16-hour infusions): 5.6 fold; increase of mean concentration of circulating ticagrelor ([3]; in the presence of PB2452 (Cohorts 4-6, FIG. 11B)): 2-5.6 fold; time of peak total ticagrelor concentration after an oral dose ([3]; subjects receiving ticagrelor alone): approximately 2 hours; peak total ticagrelor concentration ([3]; subjects receiving ticagrelor alone, oral dose): 900 ng/mL; patients with fatal or life-threatening major bleeding events [4]: 5.8%; patients with fatal or life-threatening bleeding event ([4]; urgent surgery, could not wait three days for ticagrelor to wash out): approximately 50%; patients with major bleeding related to procedures like CABG [4]: approximately 9%; patients with spontaneous major bleeding events not related to any medical procedure [4]: approximately 3%
COC(=O)[C@H](c1ccccc1Cl)N1CCc2sccc2C1 [clopidogrel]	–	patients with fatal or life-threatening major bleeding events [4]: 5.8%
CSCCNc1nc(SCCC(F)(F)F)nc2c1ncn2[C@@H]1O[C@H](COP(=O)(O)OP(=O)(O)C(Cl)(Cl)P(=O)(O)O)[C@@H](O)[C@H]1O [cangrelor]	No inhibition	–
Nc1ncnc2c1ncn2[C@@H]1O[C@H](CO)[C@@H](O)[C@H]1O [adenosine]	No inhibition	–

Second part, led by results:

inhibition of PB2452 binding to biotinylated ticagrelor [1]	Compound	other results
No inhibition	NS(=O)(=O)c1cc2c(cc1Cl)NC(C1CC3C=CC1C3)NS2(=O)=O (centres unmarked) [cyclothiazide]	–
No inhibition	Nc1ncnc2c1ncn2[C@@H]1O[C@H](COP(=O)(O)OP(=O)(O)O)[C@@H](O)[C@H]1O [ADP, adenosine diphosphate]	–
No inhibition	CNC(=O)c1cnn(-c2nc(N)c3ncn([C@@H]4O[C@H](CO)[C@@H](O)[C@H]4O)c3n2)c1 [regadenoson]	–
No inhibition	CC(=O)NC[C@H]1CN(c2ccc(N3CCOCC3)c(F)c2)C(=O)O1 [linezolid]	–
No inhibition	CCCC(=O)Nc1ncnc2c1ncn2[C@@H]1O[C@@H]2COP(=O)(O)O[C@H]2[C@H]1OC(=O)CCC [bucladesine]	–
No inhibition	COC(=O)C1=C(C#N)NC(C)=C(C(=O)OC(C)C)C1c1cccc([N+](=O)[O-])c1 (centres unmarked) [nilvadipine]	–
No inhibition	CC[C@H](C)C(=O)O[C@H]1C[C@@H](C)C=C2C=C[C@H](C)[C@H](CC[C@@H]3C[C@@H](O)CC(=O)O3)[C@H]21 [lovastatin]	–
No inhibition	O=C1CCc2cc(OCCCCc3nnnn3C3CCCCC3)ccc2N1 [cilostazol]	–

From patent US12617870B2, “Methods of reversing ticagrelor activity” (SFJ Pharmaceuticals X, LTD., priority 2018, dated 2026)
